The values that follow come from US10307383B2, “Cosmetic composition for preventing or ameliorating hypersensitive skin comprising cedrol or derivatives thereof, or pharmaceutically acceptable salts thereof” (University of Seoul Industry Cooperation Foundation, priority 2017, dated 2019).

Each structure is given as a SMILES string.

Holding throughout (format): in vivo, Balb/c mouse
Experiment [1] has as its system psoriasis induced mice (imiquimod). In words: Skin thickness of the psoriasis induced mice (hematoxylin and eosin staining). The following applies: day 7, 100 mg/kg oral; for skin thickness: IMQ applied, control 1,045, IMQ alone 1,181; for skin thickness, % inhibition: versus IMQ alone. The procedure: To investigate the delayed effect of cedrol, cedryl acetate, and alpha-cedrene on the development of psoriasis, total 5 groups of mice were prepared (8 mice/group). First, the hair of the entire back of the 8-week-old male Balb/c mouse whose immune system was weakened was removed by using a hair clipper (Kimlaube Hair pen 325,327, Rikei, Korea). In the middle of the shaved back of the mouse, 2 mg of imiquimod (3M Health Care Limited, England) was applied in the area of 2 cm×1.5 cm and also 1,125 mg of imiquimod was applied on the right ear of the mouse every day once a day to induce psoriasis.
The mice prepared above were divided into the distilled water treated group (IMQ), the cedrol treated group (C), the cedryl acetate treated group (CA), and the alpha-cedrene treated group (CE). At this time, the mice were orally treated with distilled water at the concentration of 200 μl/mouse and cedrol or its derivatives at the concentration of 200 μl/mouse (100 mg/kg). The day when distilled water or the compound administration started was recorded as day 0 and the administration was performed once a day for a week, during which photo-recording was performed every day (FIGS. 2A˜2D). In the meantime, instead of applying imiquimod, 40 mg of vaseline was applied on the back of the control group (CONT) and 22.5 mg of vaseline was applied on the right ear of the control group. And the control group was orally administered with distilled water (200 μl/mouse).
The skin of the psoriasis induced mice orally administered with cedrol, cedryl acetate, and alpha-cedrene of Example <2-1> was stained with hematoxyline and eosine in order to compare the skin thickness.
Particularly, the psoriasis induced mice of Example <2-1> were sacrificed with CO2, from which 1 cm×1 cm portions of the back surface were obtained and placed in PBS. The tissues washed with PBS were loaded in 10% formalin, followed by fixing at room temperature for a day. The fixed tissues were washed with PBS once, followed by dehydration with 25% methanol, 50% methanol, 75% methanol, and 100% methanol for 30 minutes each. Further dehydration of those tissues was additionally performed with 100% ethanol twice for 30 minutes each; with the mixed solution comprising ethanol and xylene (1:1) for 30 minutes, and with 100% xylene twice for 30 minutes each. 4 hours before washing, the modular tissue embedding center (LEICA EG 1150H, Leica, Germany) was turned on and paraplast plus (Sigma Aldrich, Korea) was melted at 60° C., followed by washing the paraffin. The tissues were loaded in a bottle, to which the melted paraffin was poured in, followed by washing in a 60° C. warm chamber twice for one hour each. The xylene-free tissues were placed in the paraffin solution, followed by reaction in the warm chamber for a day. The tissue sections were then placed on a Peel-A-Way embedding mold (Polysciences, Taiwan) and the paraffin solution was filled to half of the mold. The tissue sections were placed on top of the Peel-A-Way embedding mold, followed by fixing. An embedding ring (Thomas Scientific, USA) was placed on the mold, which was treated with the paraffin solution to solidify the mold and the ring at 4° C. for 3 hours, followed by reaction at 4° C. for a day. The embedded tissues can be semipermanently stored at 4° C. The embedded tissues were cut by using a semi-motorized rotary microtome (LEICA RM2145 Microtome, Leica, Germany), which were suspended in a 37° C. water bath to spread the paraffin wrinkles. The straightened wrinkles were collected by using a micro silane coating slide (Muto Pure Chemicals, Japan), which were dried at 37° C. for a day. When the tissues were completely dried, they were treated with xylene twice for 5 minutes each in order to eliminate the paraffin remaining in the tissues. The tissues were further washed with the mixed solution comprising ethanol and xylene (1:1), 100% ethanol, 100% methanol, 75% methanol, and 50% methanol for 2 minutes each to stain the tissues easily. […]

The test system is the same in experiment [2]. The experiment is described as follows: Recovery effect on hemorrhage spots of the psoriasis induced mice. The procedure:
(§1) Imiquimod was applied to the psoriasis induced mice which had developed psoriasis for a week in Example <2-1>. The application was stopped 8 days after the application began. The groups CON and IMQ were treated with distilled water, the group C was treated with cedrol, the group CA was treated with cedryl acetate, the group CE was treated with alpha-cedrene alone at the concentration of 100 mg/kg in 200 μl, every day via oral-administration. Day 8 was the day the imiquimod application was stopped, since then the compounds were administered for 1 week once a day, during which photo-recording was performed (FIGS. 13A˜13D).
The psoriasis induced mice orally administered with cedrol, cedryl acetate, and alpha-cedrene of Example <3-1> were observed by the naked eye, and the number of mice showing the recovery of hemorrhage spots was counted.

The test system is the same in experiment [3]. In words: Recovery effect on skin wrinkles of the psoriasis induced mice. How it is done:
as §1
The psoriasis induced mice orally administered with cedrol, cedryl acetate, and alpha-cedrene of Example <3-1> were observed by the naked eye, and the number of mice showing the recovery of skin wrinkles was counted.

For experiment [4] the test system is unchanged. The experiment is described as follows: Accelerating effect on hair regrowth of the psoriasis induced mice. The settings on record: for number of mice showing hair regrowth: 8 mice/group. How it is done: as §1
The psoriasis induced mice orally administered with cedrol, cedryl acetate, and alpha-cedrene of Example <3-1> were observed by the naked eye, and the number of mice showing hair regrowth was counted.

[5] abbreviates: 100 mg/kg oral after termination of imiquimod.
Setting [6] is: day 8, 100 mg/kg oral, 8 mice/group.
Where [7] appears, read: day 13, 100 mg/kg oral after termination of imiquimod.
The mark [8] stands for this setting: day 16, 100 mg/kg oral after termination of imiquimod, distilled water 5.
Where [9] appears, read: day 16, 100 mg/kg oral after termination of imiquimod.

Take `C[C@@H]1CC[C@H]2C(C)(C)[C@H]3C[C@@]12CC[C@@]3(C)O` [cedrol, Cedrol]: the skin thickness in experiment [1] turned out to be 954 μm. Further, the “skin thickness, % inhibition” value in experiment [1] worked out at 19.2 % inhibition. Besides, in experiment [2] (setting [5]), the “hemorrhage spot recovery effect, comparison in words” value was “strongest recovery effect”. Besides, the “number of mice showing hemorrhage spots” value in experiment [2] (setting [6]) was 6 mice; in experiment [2] (day 12, 100 mg/kg oral after termination of imiquimod), “no mouse”. In experiment [3] (setting [5]), the “skin wrinkle recovery effect, comparison in words” value is given as “strongest recovery effect”. Besides, the “number of mice showing skin wrinkles” value is recorded as “no mouse” in experiment [3] (after day 15, 100 mg/kg oral after termination of imiquimod) and 5 mice in experiment [3] (setting [6]). Also, the “accelerating effect on hair regrowth, comparison in words” value in experiment [4] (setting [5]) is listed as “strongest accelerating effect”. Also, the “number of mice showing hair regrowth” value in experiment [4] (setting [7]) is listed as 2 mice; in experiment [4] (setting [8]) it was “all the mice”.
In experiment [1], `CC(=O)O[C@]1(C)CC[C@@]23C[C@@H]1C(C)(C)[C@@H]2CC[C@H]3C` [cedryl acetate, Cedryl acetate] displayed a skin thickness of 999 μm. Also, the “skin thickness, % inhibition” value in experiment [1] was 15.3 % inhibition. The “number of mice showing hemorrhage spots” value is listed as 6 mice in experiment [2] (setting [6]) and “no mouse” in experiment [2] (setting [9]). The “number of mice showing skin wrinkles” value in experiment [3] (setting [6]) was 3 mice; in experiment [3] (setting [9]), “no mouse”. Moreover, the “number of mice showing hair regrowth” value was “one” in experiment [4] (day 14, 100 mg/kg oral after termination of imiquimod) and 7 mice in experiment [4] (setting [8]).
In experiment [1], `CC1=CC[C@@]23C[C@@H]1C(C)(C)[C@@H]2CC[C@H]3C` [alpha-cedrene, Alpha-cedrene] displayed a skin thickness of 954 μm. The “skin thickness, % inhibition” value in experiment [1] was found to be 19.2 % inhibition. The “number of mice showing hemorrhage spots” value in experiment [2] (setting [6]) is given as 4 mice; in experiment [2] (setting [9]) it was “no mouse”. The figures for the “number of mice showing skin wrinkles” value in experiment [3] (setting [6]) and in experiment [3] (setting [9]) were 3 mice and “no mouse”, respectively. Further, the “number of mice showing hair regrowth” value was “one” in experiment [4] (setting [7]) and “all the mice” in experiment [4] (setting [8]).
